Data from PubChem BioAssay (NCI).
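Test compounds were applied to cells in 96-well plates for 48 hours at 5 doses. GI50 = concentration required for 50% inhibition of growth. Definition used: TGI = concentration required for complete inhibition of growth.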

Experiments:
Assay in all cases: NCI tumour cell line growth inhibition, 48 h
[1] = system: UO-31 renal
[2] = system: MALME-3M melanoma
[3] = system: CAKI-1 renal
[4] = system: A498 renal
[5] = system: COLO 205 colon
[6] = system: HCT-116 colon
[7] = system: MOLT-4 leukemia
[8] = system: SNB-19 CNS
[9] = system: SF-268 CNS
[10] = system: KM12 colon
[11] = system: HL-60(TB) leukemia
[12] = system: IGROV1 ovarian
[13] = system: K-562 leukemia
[14] = system: TK-10 renal
[15] = system: NCI-H460 lung
[16] = system: ACHN renal
[17] = system: T-47D breast
[18] = system: RPMI-8226 leukemia
[19] = system: CCRF-CEM leukemia
[20] = system: SN12C renal
[21] = system: MCF7 breast
[22] = system: UACC-257 melanoma
[23] = system: BT-549 breast
[24] = system: HOP-92 NSCLC
[25] = system: SF-295 CNS
[26] = system: OVCAR-8 ovarian
[27] = system: EKVX NSCLC
[28] = system: 786-0 renal
[29] = system: A549 NSCLC
[30] = system: SF-539 CNS
[31] = system: DU-145 prostate
[32] = system: SK-MEL-5 melanoma
[33] = system: RXF 393 renal
[34] = system: SNB-75 CNS
[35] = system: OVCAR-4 ovarian
[36] = system: HS 578T breast
[37] = system: NCI/ADR-RES ovarian
[38] = system: SK-MEL-28 melanoma
[39] = system: PC-3 prostate
[40] = system: NCI-H226 lung
[41] = system: HCC-2998 colon
[42] = system: NCI-H23 lung
[43] = system: HCT-15 colon
[44] = system: MDA-MB-435
[45] = system: HOP-62 NSCLC
[46] = system: NCI-H522 lung
[47] = system: OVCAR-3 ovarian
[48] = system: UACC-62 melanoma
[49] = system: HT29 colon
[50] = system: U251 CNS
[51] = system: MDA-MB-231 breast
[52] = system: LOX IMVI melanoma
[53] = system: M14 melanoma
[54] = system: SW-620 colon
[55] = system: SK-MEL-2 melanoma
[56] = system: SK-OV-3 ovarian
[57] = system: OVCAR-5 ovarian
[58] = system: SR leukemia

`O=[N+]([O-])c1ccc(NC(c2ccccc2)c2ccc3cccnc3c2O)cc1` (stereo unspecified) was tested, and the GI50 [1] was 0.297 µM, the TGI [1] was over 31.4 µM and the GI50 [2] was 0.826 µM. For the same compound, the TGI [2] was over 100 µM, the GI50 [3] was 0.312 µM and the GI50 [4] was 0.634 µM. For the same compound, the TGI [4] was 8.13 µM, the GI50 [5] was 0.448 µM and the TGI [5] was over 100 µM. The GI50 [6] was 0.31 µM, the TGI [6] was over 55.9 µM and the GI50 [7] was 0.344 µM. The TGI [7] was over 100 µM, the GI50 [8] was 0.551 µM and the TGI [8] was over 100 µM. It also gave a GI50 [9] of 0.378 µM, a TGI [9] of over 100 µM and a GI50 [10] of 0.449 µM. The TGI [10] was over 100 µM, the GI50 [11] was 0.334 µM and the TGI [11] was 1.47 µM. For the same compound, the GI50 [12] was 0.388 µM, the TGI [12] was over 51.5 µM and the GI50 [13] was 0.376 µM. It also gave a TGI [13] of over 100 µM, a GI50 [14] of 0.932 µM and a TGI [14] of over 100 µM. It also gave a GI50 [15] of 0.253 µM, a TGI [15] of 1.39 µM and a GI50 [16] of 0.351 µM. The TGI [16] was over 89.9 µM, the GI50 [17] was 0.633 µM and the TGI [17] was over 100 µM. It also gave a GI50 [18] of 0.313 µM, a TGI [18] of over 100 µM and a GI50 [19] of 0.246 µM. The TGI [19] was 7.97 µM, the GI50 [20] was 0.935 µM and the TGI [20] was over 100 µM. For the same compound, the GI50 [21] was 0.335 µM, the TGI [21] was over 100 µM and the GI50 [22] was 0.548 µM. The TGI [22] was 6.67 µM, the GI50 [23] was 0.601 µM and the TGI [23] was 43.2 µM. For the same compound, the GI50 [24] was 0.234 µM, the TGI [24] was over 100 µM and the GI50 [25] was 0.314 µM. The TGI [25] was over 100 µM, the GI50 [26] was 0.435 µM and the TGI [26] was over 100 µM. The GI50 [27] was 0.393 µM, the TGI [27] was over 100 µM and the GI50 [28] was 0.363 µM. It also gave a GI50 [29] of 0.878 µM, a TGI [29] of over 100 µM and a GI50 [30] of 0.499 µM. It also gave a TGI [30] of over 31.9 µM, a GI50 [31] of 0.483 µM and a TGI [31] of over 100 µM. It also gave a GI50 [32] of 0.4 µM, a TGI [32] of 3.12 µM and a GI50 [33] of 0.698 µM. The TGI [33] was over 100 µM, the GI50 [34] was 1.63 µM and the TGI [34] was over 100 µM. For the same compound, the GI50 [35] was 0.331 µM, the TGI [35] was over 100 µM and the GI50 [36] was 0.52 µM. The TGI [36] was over 100 µM, the GI50 [37] was 0.288 µM and the TGI [37] was over 23.4 µM. The GI50 [38] was 0.697 µM, the TGI [38] was over 100 µM and the GI50 [39] was 0.586 µM. For the same compound, the TGI [39] was over 100 µM, the GI50 [40] was 0.505 µM and the TGI [40] was 9.19 µM. For the same compound, the GI50 [41] was 0.418 µM, the TGI [41] was over 100 µM and the GI50 [42] was 0.414 µM. For the same compound, the TGI [42] was over 100 µM, the GI50 [43] was 0.326 µM and the TGI [43] was over 100 µM. It also gave a GI50 [44] of 0.422 µM, a TGI [44] of over 100 µM and a GI50 [45] of 0.537 µM. For the same compound, the TGI [45] was over 100 µM, the GI50 [46] was 0.392 µM and the TGI [46] was over 100 µM. For the same compound, the GI50 [47] was 0.45 µM, the TGI [47] was over 100 µM and the GI50 [48] was 0.51 µM. The TGI [48] was over 100 µM, the GI50 [49] was 0.487 µM and the TGI [49] was over 100 µM. The GI50 [50] was 0.418 µM, the TGI [50] was over 100 µM and the GI50 [51] was 0.696 µM. It also gave a TGI [51] of over 100 µM, a GI50 [52] of 0.293 µM and a GI50 [53] of 0.308 µM. For the same compound, the TGI [53] was over 100 µM, the GI50 [54] was 0.389 µM and the TGI [54] was over 100 µM. For the same compound, the GI50 [55] was 0.943 µM, the TGI [55] was over 100 µM and the GI50 [56] was 0.5 µM. For the same compound, the TGI [56] was over 100 µM, the GI50 [57] was 1.77 µM and the TGI [57] was over 100 µM.
Work on `O=C(Nc1cccc(Cl)c1)Nc1cc(C(F)(F)F)ccc1Cl` yielded a GI50 [4] of 2.16 µM, a TGI [4] of 6.36 µM and a GI50 [5] of 2.09 µM. For the same compound, the TGI [5] was 3.68 µM, the GI50 [6] was 2.54 µM and the TGI [6] was 7.48 µM. It also gave a GI50 [7] of 3.12 µM, a TGI [7] of 11.4 µM and a GI50 [58] of 3.78 µM. It also gave a TGI [58] of 38 µM, a GI50 [8] of 3.81 µM and a TGI [8] of 19.6 µM. It also gave a GI50 [9] of 3.55 µM, a TGI [9] of 11.7 µM and a GI50 [10] of 2.65 µM. For the same compound, the TGI [10] was 6.98 µM, the GI50 [11] was 3.02 µM and the TGI [11] was 31.3 µM. The GI50 [13] was 3.36 µM, the TGI [13] was 18.2 µM and the GI50 [14] was 4.29 µM. The TGI [14] was 39.5 µM, the GI50 [15] was 2.54 µM and the TGI [15] was 6.84 µM. It also gave a GI50 [16] of 2.54 µM, a TGI [16] of 7.16 µM and a GI50 [17] of 3.53 µM. It also gave a TGI [17] of 31.3 µM, a GI50 [18] of 2.33 µM and a TGI [18] of 7.13 µM. The GI50 [19] was 3.24 µM, the TGI [19] was over 100 µM and the GI50 [20] was 3.01 µM. It also gave a TGI [20] of 11.5 µM, a GI50 [21] of 3.13 µM and a TGI [21] of 18.1 µM. For the same compound, the GI50 [22] was 2.66 µM, the TGI [22] was 5.84 µM and the GI50 [23] was 2.81 µM. The TGI [23] was 10.1 µM, the GI50 [26] was 3.16 µM and the TGI [26] was 7.75 µM. It also gave a GI50 [28] of 2.86 µM, a TGI [28] of 12 µM and a GI50 [29] of 2.72 µM. It also gave a TGI [29] of 8.98 µM, a GI50 [30] of 3.18 µM and a TGI [30] of 11.4 µM. It also gave a GI50 [31] of 2.95 µM, a TGI [31] of 10.2 µM and a GI50 [32] of 1.92 µM. It also gave a TGI [32] of 3.51 µM, a GI50 [33] of 1.12 µM and a TGI [33] of 3.95 µM. For the same compound, the GI50 [34] was 2.29 µM, the TGI [34] was 6.48 µM and the GI50 [35] was 3.8 µM. For the same compound, the TGI [35] was 16.6 µM, the GI50 [36] was 2.63 µM and the TGI [36] was 8.39 µM. It also gave a GI50 [37] of 2.64 µM, a TGI [37] of 7.12 µM and a GI50 [38] of 4.19 µM. It also gave a TGI [38] of 29.6 µM, a GI50 [39] of 3.86 µM and a TGI [39] of 32.8 µM. For the same compound, the GI50 [40] was 3.25 µM, the TGI [40] was 10.5 µM and the GI50 [41] was 2.53 µM. The TGI [41] was 5.88 µM, the GI50 [42] was 2.44 µM and the TGI [42] was 6.59 µM. It also gave a GI50 [43] of 2.66 µM, a TGI [43] of 11.5 µM and a GI50 [45] of 2.72 µM. For the same compound, the TGI [45] was 9.23 µM, the GI50 [46] was 2.14 µM and the TGI [46] was 7.7 µM. It also gave a GI50 [47] of 2.61 µM, a TGI [47] of 7.19 µM and a GI50 [48] of 2.8 µM. The TGI [48] was 13.7 µM, the GI50 [49] was 3.03 µM and the TGI [49] was 11.3 µM. For the same compound, the GI50 [50] was 3.32 µM, the TGI [50] was 8.56 µM and the GI50 [51] was 1.97 µM. It also gave a TGI [51] of 4.23 µM, a GI50 [52] of 2.75 µM and a TGI [52] of 6.96 µM. It also gave a GI50 [53] of 2.97 µM, a TGI [53] of 9.68 µM and a GI50 [54] of 3.28 µM. For the same compound, the TGI [54] was 10.6 µM, the GI50 [55] was 2.24 µM and the TGI [55] was 5.4 µM. The GI50 [56] was 3.54 µM, the TGI [56] was 16.5 µM and the GI50 [57] was 3.17 µM. The TGI [57] was 12.7 µM.
